The subject of test [1] is HEK-Kir-mutated Nav cells. The test is described as follows: Cell death by electrical stimulation, MTT method, HEK-Kir-mutated Nav cells. Particulars: square wave 80 mA, 200 ms, three times at 3 min intervals, FIG. 6. The format is cell-based, human. Here is the method:
Human-derived embryonic kidney cells (HEK293 cells) were purchased from the Health Sciences Research Resource Bank (HSRRB). 10% FBS (Gibco Corp.) was added thereto followed by culturing at 37° C. in 5% CO2 in D-MEM medium (Wako Pure Chemical Industries, Ltd.) containing 100 U/ml penicillin (Wako Pure Chemical Industries, Ltd.) and 100 μg/ml streptomycin (Meiji Seika Kaisha, Ltd.). pcDNA/Kir 2.1, obtained by subcloning human-derived Kir 2.1 (NM_00891.2) in pcDNA3.1(+) (Invitrogen Corp.), was inserted using Lipofectamine 2000 reagent (Invitrogen Corp.) followed by culturing in medium obtained by adding 0.2 mg/ml Zeocin (Invitrogen Corp.) to the above-mentioned D-MEM medium and then cloning Zeocin resistant cells to produce Kir 2.1 constantly expressing cells (HEK-Kir). […]
It was clearly determined from the results described in section 2 above that an extremely long action potential is generated in the mutant type Nav 1.5 channel. Since there is thought to be the possibility of cell death occurring when the action potential is generated by electrical stimulation, cell death attributable to electrical stimulation was measured. […] On the basis thereof, cell death was determined to occur in HEK-Kir-mutated Nav cells as a result of generating an extremely long action potential, while inhibition of Na ion channels blocked cell death.
A general note: Formazan colour is commonly taken as a measure of viable cells.

The subject of test [2] is HEK-Kir-mutated Nav cells. The test is described as follows: DiBAC4(3) membrane potential fluorescence under high K+ stimulation in HEK-Kir-mutated Nav cells. To be noted: 1 mM lidocaine, extracellular K ion 5.9 mM to 15.3 mM, FIG. 17. The format is cell-based, human. Here is the method: In the present example, a study was conducted on measurement of membrane potential using a membrane potential-sensitive dye in the form of DiBAC4(3), and using an extracellular solution containing K ions at a high concentration for depolarizing stimulation.
After loading two types of cells (HEK and HEK-Kir-mutated Nav cells) with 100 nM DiBAC4(3) (bis(1,3-dibutylbarbituric acid)trimethine oxanol) in normal HEPES buffer containing the dye for 30 minutes at room temperature, and fluorescence was measured at 520 nm or higher by exciting at 488 nm and reflecting with a dichroic mirror at 505 nm. In addition, high K^+ extracellular fluid having an increased K ion concentration was used as a stimulus to depolarize the cell membrane. This is because K ions are primarily involved in formation of resting membrane potential. […] In the present example, changes in fluorescence intensity of two types of cells were measured using this depolarizing stimulus. Furthermore, measurements were carried out based on a value of 1 for fluorescence intensity in the case of making the extracellular K ion concentration to be 140 mM K^+. The Argus/HiSCA high-speed, cooled CCD camera fluorescent imaging system (Hamamatsu Photonics K.K.) was used to measure fluorescence.

The next test deals with HEK-Kir cells. The experiment in a line: Membrane potential of HEK-Kir cells, current clamp method. Type of test: cell-based, human. To be noted: 100 μM Ba ions, resting potential about −70 mV before, FIG. 2B.
Another test concerns the target T1, Kir 2.1 channel (Homo sapiens, UniProt P63252).
T1 construct: expressed in transfected cells
T1 sequence (P63252 1-427): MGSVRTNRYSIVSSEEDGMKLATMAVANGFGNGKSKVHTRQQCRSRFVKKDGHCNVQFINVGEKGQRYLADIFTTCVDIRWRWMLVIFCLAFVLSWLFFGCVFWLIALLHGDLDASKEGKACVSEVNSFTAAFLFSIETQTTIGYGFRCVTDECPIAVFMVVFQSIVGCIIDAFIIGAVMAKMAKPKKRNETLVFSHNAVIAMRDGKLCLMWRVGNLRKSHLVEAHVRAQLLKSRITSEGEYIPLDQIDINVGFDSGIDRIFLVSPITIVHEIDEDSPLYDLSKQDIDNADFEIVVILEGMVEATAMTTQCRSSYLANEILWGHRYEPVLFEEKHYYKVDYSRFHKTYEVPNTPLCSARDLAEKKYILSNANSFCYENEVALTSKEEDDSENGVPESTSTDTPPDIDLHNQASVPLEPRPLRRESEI
The test is described as follows: Kir channel current in HEK-Kir cells, voltage clamp method. The format is cell-based. Particulars: 100 μM Ba ions, FIG. 2A. Here is the method:
Human-derived embryonic kidney cells (HEK293 cells) were purchased from the Health Sciences Research Resource Bank (HSRRB). 10% FBS (Gibco Corp.) was added thereto followed by culturing at 37° C. in 5% CO2 in D-MEM medium (Wako Pure Chemical Industries, Ltd.) containing 100 U/ml penicillin (Wako Pure Chemical Industries, Ltd.) and 100 μg/ml streptomycin (Meiji Seika Kaisha, Ltd.). pcDNA/Kir 2.1, obtained by subcloning human-derived Kir 2.1 (NM_00891.2) in pcDNA3.1(+) (Invitrogen Corp.), was inserted using Lipofectamine 2000 reagent (Invitrogen Corp.) followed by culturing in medium obtained by adding 0.2 mg/ml Zeocin (Invitrogen Corp.) to the above-mentioned D-MEM medium and then cloning Zeocin resistant cells to produce Kir 2.1 constantly expressing cells (HEK-Kir). In addition, the inactivated mutant Nav-QQQ (HEK-Kir-mutated Nay) was inserted into the Kir 2.1 constantly expressing cells using the same method followed by conducting experiments 24 to 72 hours later.
Kir channel current was measured by applying the voltage clamp method to HEK-Kir cells.

Structures are written as SMILES.

On to `CCN(CC)CC(=O)Nc1c(C)cccc1C` [lidocaine], for which, in test [1], the “occurrence of cell death attributable to electrical stimulation” value is listed as “inhibited”. In addition, the “changes in fluorescence caused by high K+ stimulation” value in test [2] is reported as “inhibited”.

Turning to `[Ba+2]` [Ba ions], the resting membrane potential entry with HEK-Kir cells is given as “became shallow”. Further, on Kir 2.1 channel, the “inward Kir channel current” value is recorded as “inhibited”.
